How the values were obtained:
Experiment in all cases: biochemical
Parameters in all cases: DiscoveRx KINOMEscan competition binding, percent of DMSO control signal at 100 nM
Details in all cases: read-out: Fig. 4a / Percent Control / Compound 1; percent of DMSO control, competition binding
DAPK1 = DAPK1 (Homo sapiens, UniProt P53355)
SRC = SRC (Homo sapiens, UniProt P12931)
MYO3A = MYO3A (Homo sapiens, UniProt Q8NEV4)
[1] = molecular target: T1, ABL1(H396P)-phosphorylated (Homo sapiens, UniProt P00519, H396P)
T1 construct: phosphorylated

BMPR2 = BMPR2 (Homo sapiens, UniProt Q13873)
HASPIN = HASPIN (Homo sapiens, UniProt Q8TF76)
CSNK1D = CSNK1D (Homo sapiens, UniProt P48730)
Chain of CSNK1D (P48730 whole entry): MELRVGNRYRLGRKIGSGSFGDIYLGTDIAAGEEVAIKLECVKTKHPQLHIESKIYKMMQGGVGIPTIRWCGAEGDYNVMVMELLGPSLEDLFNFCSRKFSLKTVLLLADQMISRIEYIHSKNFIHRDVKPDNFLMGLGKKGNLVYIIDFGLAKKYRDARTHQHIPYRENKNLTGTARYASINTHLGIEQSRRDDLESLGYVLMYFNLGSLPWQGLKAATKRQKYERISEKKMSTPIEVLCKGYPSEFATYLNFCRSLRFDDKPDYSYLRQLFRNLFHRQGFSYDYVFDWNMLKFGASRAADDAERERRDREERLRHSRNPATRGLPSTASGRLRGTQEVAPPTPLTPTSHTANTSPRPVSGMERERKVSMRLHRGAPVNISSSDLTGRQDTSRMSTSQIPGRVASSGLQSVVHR

[2] = molecular target: T2, JAK2(JH1domain-catalytic) (Homo sapiens, UniProt O60674)
T2 construct: JH1domain-catalytic
T2 sequence (O60674 whole entry): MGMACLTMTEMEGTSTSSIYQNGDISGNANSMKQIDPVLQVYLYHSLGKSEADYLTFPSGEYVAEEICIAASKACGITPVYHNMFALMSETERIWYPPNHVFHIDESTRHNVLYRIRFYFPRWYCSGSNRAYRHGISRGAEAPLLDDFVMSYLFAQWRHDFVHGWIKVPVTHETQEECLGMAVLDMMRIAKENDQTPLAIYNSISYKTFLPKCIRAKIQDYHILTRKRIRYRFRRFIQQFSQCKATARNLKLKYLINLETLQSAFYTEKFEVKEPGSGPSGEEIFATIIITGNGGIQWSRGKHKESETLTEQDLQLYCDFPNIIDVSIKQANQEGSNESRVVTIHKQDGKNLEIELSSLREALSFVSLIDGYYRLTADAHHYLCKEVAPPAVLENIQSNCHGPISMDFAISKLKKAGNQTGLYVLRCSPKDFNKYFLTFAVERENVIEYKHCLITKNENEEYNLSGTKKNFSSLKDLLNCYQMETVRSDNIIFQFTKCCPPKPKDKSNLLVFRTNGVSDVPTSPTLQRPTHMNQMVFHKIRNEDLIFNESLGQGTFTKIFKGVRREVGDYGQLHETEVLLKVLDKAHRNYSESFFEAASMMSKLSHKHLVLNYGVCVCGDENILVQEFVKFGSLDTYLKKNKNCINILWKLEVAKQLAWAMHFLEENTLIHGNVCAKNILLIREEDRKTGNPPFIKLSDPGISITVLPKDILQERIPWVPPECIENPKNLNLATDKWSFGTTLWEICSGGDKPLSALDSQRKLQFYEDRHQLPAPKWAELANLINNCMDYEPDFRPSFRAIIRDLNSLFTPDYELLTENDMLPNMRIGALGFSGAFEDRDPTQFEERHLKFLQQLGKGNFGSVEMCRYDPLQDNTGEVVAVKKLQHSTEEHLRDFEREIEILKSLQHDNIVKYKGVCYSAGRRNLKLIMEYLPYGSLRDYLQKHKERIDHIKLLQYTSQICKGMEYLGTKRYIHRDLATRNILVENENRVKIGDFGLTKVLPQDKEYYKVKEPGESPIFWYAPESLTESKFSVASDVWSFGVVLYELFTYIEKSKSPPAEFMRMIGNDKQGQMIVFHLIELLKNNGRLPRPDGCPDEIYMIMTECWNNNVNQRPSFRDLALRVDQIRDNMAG

LZK = molecular target: T3, LZK (Homo sapiens, UniProt O43283)
T3 construct: gene MAP3K13
T3 sequence (O43283 whole entry): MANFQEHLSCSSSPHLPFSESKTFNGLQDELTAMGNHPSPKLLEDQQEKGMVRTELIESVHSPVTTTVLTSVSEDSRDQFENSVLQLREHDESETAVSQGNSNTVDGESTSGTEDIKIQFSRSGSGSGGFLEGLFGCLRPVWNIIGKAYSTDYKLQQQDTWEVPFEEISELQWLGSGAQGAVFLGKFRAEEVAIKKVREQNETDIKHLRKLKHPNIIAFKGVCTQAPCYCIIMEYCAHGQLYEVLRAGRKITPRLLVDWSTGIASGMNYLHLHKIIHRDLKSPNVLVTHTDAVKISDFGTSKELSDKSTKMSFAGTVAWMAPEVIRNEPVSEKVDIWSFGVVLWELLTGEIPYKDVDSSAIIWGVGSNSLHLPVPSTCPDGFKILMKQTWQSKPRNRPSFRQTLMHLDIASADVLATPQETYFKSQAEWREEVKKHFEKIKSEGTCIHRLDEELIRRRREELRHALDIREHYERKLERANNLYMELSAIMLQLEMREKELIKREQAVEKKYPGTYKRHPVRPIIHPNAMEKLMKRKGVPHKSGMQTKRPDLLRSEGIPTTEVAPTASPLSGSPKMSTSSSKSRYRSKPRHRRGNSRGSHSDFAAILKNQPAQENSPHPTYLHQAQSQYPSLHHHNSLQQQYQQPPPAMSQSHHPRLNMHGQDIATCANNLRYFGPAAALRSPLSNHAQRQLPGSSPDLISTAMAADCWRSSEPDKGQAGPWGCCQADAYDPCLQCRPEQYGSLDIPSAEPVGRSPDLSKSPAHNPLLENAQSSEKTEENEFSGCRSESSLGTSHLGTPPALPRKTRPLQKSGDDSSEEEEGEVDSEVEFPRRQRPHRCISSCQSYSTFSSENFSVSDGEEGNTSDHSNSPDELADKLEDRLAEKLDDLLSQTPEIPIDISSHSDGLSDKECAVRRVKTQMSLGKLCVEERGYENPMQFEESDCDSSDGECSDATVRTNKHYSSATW

SYK = SYK (Homo sapiens, UniProt P43405)
ERK3 = molecular target: T4, ERK3 (Homo sapiens, UniProt Q16659)
T4 construct: gene MAPK6
T4 sequence (Q16659 whole entry): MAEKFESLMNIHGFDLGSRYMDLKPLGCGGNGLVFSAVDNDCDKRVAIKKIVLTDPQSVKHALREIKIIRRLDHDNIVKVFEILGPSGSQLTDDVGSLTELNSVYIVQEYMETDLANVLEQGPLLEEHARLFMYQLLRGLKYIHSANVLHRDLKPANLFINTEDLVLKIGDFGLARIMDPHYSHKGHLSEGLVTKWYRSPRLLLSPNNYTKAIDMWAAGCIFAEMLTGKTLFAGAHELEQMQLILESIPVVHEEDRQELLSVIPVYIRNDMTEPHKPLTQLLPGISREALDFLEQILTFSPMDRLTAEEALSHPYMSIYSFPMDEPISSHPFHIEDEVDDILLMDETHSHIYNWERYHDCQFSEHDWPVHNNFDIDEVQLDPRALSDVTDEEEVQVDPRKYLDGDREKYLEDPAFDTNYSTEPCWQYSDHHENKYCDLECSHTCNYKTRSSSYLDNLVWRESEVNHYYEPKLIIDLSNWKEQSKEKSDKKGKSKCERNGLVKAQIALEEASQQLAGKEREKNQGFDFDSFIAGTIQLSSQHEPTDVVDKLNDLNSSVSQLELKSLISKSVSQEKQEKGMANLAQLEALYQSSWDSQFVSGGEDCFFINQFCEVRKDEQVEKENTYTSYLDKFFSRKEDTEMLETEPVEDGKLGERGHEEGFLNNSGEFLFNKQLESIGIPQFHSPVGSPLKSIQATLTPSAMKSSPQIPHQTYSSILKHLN

TNNI3K = TNNI3K (Homo sapiens, UniProt Q59H18)
GRK3 = GRK3 (Homo sapiens, UniProt P35626)
p38-alpha = molecular target: T5, p38-alpha (Homo sapiens, UniProt Q16539)
T5 construct: gene MAPK14
T5 sequence (Q16539 whole entry): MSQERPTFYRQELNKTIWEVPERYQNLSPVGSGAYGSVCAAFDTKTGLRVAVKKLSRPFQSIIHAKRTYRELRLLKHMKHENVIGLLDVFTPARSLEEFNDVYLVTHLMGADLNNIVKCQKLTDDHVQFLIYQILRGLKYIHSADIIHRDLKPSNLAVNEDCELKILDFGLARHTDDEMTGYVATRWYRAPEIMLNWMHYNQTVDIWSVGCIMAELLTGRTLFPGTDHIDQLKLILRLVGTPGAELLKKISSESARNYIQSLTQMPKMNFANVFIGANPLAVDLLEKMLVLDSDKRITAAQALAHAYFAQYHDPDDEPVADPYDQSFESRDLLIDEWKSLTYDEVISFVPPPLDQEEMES

NEK6 = NEK6 (Homo sapiens, UniProt Q9HC98)
CLK4 = CLK4 (Homo sapiens, UniProt Q9HAZ1)
LIMK2 = LIMK2 (Homo sapiens, UniProt P53671)
IKK-beta = molecular target: T6, IKK-beta (Homo sapiens, UniProt O14920)
T6 construct: gene IKBKB

[3] = molecular target: T7, ABL1(F317L)-phosphorylated (Homo sapiens, UniProt P00519, F317L)
T7 construct: phosphorylated

RAF1 = RAF1 (Homo sapiens, UniProt P04049)
Chain of RAF1 (P04049 whole entry): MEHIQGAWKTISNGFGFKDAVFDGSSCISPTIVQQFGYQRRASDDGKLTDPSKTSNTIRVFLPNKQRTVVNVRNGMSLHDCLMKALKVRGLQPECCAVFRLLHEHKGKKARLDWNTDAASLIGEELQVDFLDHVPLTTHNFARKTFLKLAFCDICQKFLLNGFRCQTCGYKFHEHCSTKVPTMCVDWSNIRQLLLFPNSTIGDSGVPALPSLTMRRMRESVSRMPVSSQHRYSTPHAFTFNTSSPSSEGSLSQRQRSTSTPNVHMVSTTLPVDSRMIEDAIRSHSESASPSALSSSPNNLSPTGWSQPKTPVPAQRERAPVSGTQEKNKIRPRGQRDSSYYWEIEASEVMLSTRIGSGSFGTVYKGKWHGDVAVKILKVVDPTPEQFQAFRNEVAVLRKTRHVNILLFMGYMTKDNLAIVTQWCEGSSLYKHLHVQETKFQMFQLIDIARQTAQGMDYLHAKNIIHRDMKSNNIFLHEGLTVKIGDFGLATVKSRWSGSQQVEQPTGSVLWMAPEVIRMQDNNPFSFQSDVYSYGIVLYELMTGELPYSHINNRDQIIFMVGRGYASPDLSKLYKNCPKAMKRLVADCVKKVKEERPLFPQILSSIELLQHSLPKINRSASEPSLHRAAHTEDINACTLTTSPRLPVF

KIT-autoinhibited = KIT-autoinhibited (Homo sapiens, UniProt P10721)
DAPK2 = DAPK2 (Homo sapiens, UniProt Q9UIK4)
MST1R = MST1R (Homo sapiens, UniProt Q04912)
ACVR2A = ACVR2A (Homo sapiens, UniProt P27037)
MARK2 = MARK2 (Homo sapiens, UniProt Q7KZI7)
Chain of MARK2 (Q7KZI7 whole entry): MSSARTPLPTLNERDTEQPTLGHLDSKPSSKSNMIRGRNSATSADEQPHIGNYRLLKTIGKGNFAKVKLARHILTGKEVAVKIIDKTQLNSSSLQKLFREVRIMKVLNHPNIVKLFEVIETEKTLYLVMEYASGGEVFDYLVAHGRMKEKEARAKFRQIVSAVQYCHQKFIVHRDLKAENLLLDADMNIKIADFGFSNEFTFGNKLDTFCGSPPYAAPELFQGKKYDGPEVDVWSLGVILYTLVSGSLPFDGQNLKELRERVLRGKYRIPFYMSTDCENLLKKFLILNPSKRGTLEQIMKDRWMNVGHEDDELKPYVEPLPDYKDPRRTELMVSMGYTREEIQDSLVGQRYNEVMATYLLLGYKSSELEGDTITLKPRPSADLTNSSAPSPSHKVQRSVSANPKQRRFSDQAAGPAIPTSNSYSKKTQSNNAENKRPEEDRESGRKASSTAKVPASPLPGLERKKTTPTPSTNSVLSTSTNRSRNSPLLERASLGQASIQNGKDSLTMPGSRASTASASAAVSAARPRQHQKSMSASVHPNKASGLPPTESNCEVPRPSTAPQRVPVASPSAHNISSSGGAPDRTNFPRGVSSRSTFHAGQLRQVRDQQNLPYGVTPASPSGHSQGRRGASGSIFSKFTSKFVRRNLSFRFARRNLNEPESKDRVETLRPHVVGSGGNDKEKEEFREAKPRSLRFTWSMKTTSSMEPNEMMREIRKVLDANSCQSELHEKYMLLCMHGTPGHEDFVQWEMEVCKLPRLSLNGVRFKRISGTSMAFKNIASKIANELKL
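Also: KINOMEscan kinase panel binding assay, signal normalized between DMSO as 100% and a positive control compound as 0%.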

Work on Cc1cnc2nc1Nc1cccc(c1)COCc1cc(ccc1OCCN1CCCC1)N2 [Compound 1] yielded a remaining binding at 0.1 µM (DAPK1) of 94%, a remaining binding at 0.1 µM (SRC) of 75% and a remaining binding at 0.1 µM (MYO3A) of 100%. The remaining binding at 0.1 µM [1] was 83%, the remaining binding at 0.1 µM (BMPR2) was 87% and the remaining binding at 0.1 µM (HASPIN) was 79%. It also gave a remaining binding at 0.1 µM (CSNK1D) of 100%, a remaining binding at 0.1 µM [2] of 0% and a remaining binding at 0.1 µM (LZK) of 63%. For the same compound, the remaining binding at 0.1 µM (SYK) was 99%, the remaining binding at 0.1 µM (ERK3) was 82% and the remaining binding at 0.1 µM (TNNI3K) was 100%. For the same compound, the remaining binding at 0.1 µM (GRK3) was 72%, the remaining binding at 0.1 µM (p38-alpha) was 100% and the remaining binding at 0.1 µM (NEK6) was 100%. It also gave a remaining binding at 0.1 µM (CLK4) of 94%, a remaining binding at 0.1 µM (LIMK2) of 92% and a remaining binding at 0.1 µM (IKK-beta) of 97%. The remaining binding at 0.1 µM [3] was 70%, the remaining binding at 0.1 µM (RAF1) was 98% and the remaining binding at 0.1 µM (KIT-autoinhibited) was 86%. The remaining binding at 0.1 µM (DAPK2) was 98%, the remaining binding at 0.1 µM (MST1R) was 100% and the remaining binding at 0.1 µM (ACVR2A) was 99%. The remaining binding at 0.1 µM (MARK2) was 89%.
